Laboratory results: US20250051314A1, “SMALL MOLECULE INHIBITORS OF INTERFERON GAMMA SIGNALING” (INSTITUT CURIE, priority 2021, published 2025)

Assays:
Type in all cases: cell-based
[1] = system: formin-mediated actin assembly; assay: In cellulo actin nucleation assay (phalloidin staining, cell area); settings: Hela cells, 40 μM, 20 min
Method: Hela cells grown on coverslips were treated with DMEM containing 0.2% BSA and the compounds (40 μM) for 20 min at 37° C., washed with cold PBS (two times) and then fixed with 4% paraformaldehyde for 30 min at room temperature, quenched in 50 mM NH4Cl for 10 min and permeabilized with 0.05% saponin in 0.2% BSA in PBS for 20 min. Cells were incubated with 165 nM phalloidin for 1 h at room temperature. DAPI containing fluoromount-G was used to mount coverslips onto glass slide. Cell areas were measured with ImageJ software (NIH).

[2] = system: IFNγ-induced tyrosine phosphorylation of STAT1 (pSTAT1); assay: JAK/STAT signalling activation assay (pSTAT1/tSTAT1 immunoblot); settings: Hela cells; for inhibition of phosphorylation of STAT, dose-response in words: different concentrations; for inhibition of phosphorylation of STAT, dose-response in words / inhibition of IFNγ-induced pSTAT1 (IFNγ-signaling), result in words: 20 min pre-incubation with IFNγ; for IC50: Homo sapiens, 1000 U/ml IFNγ pre-incubated 20 min with compound, non-linear curve fit, n=3, read-out: IC50 pSTAT1 inhibition; for inhibition of IFNγ-induced pSTAT1 (IFNγ-signaling), result in words: screening at 40 μM
Method: Cell culture: Hela cells were grown at 37° C. under 5% CO2 in DMEM high glucose Glutamax (Gibco, Life Technologies) complemented with 10% FBS (v/v) (Gibco, Life Technologies) and supplemented with 5 mM pyruvate (v/v) (Gibco, Life Technologies) and 1% penicillin-streptomycin (v/v) (Gibco, Life Technologies). Primary antibodies: Mouse anti-phospho-STAT1 Tyr701 (BD Transduction Laboratories, 612132, RRID: AB_399503, 1:1000 for western blot), rabbit anti-STAT1 (Cell Signaling, 9172, RRID: AB_2198300, 1:1000 for western blot), mouse anti-alpha-tubulin (Sigma, clone B512, T5168, RRID: AB_86546, 1:5000 for western blot); rabbit anti-IFN-γ ([Abcam, EPR1108, ab133566, 1:1000 for western blot). Secondary antibodies anti-mouse-Alexa488 (Invitrogen, A21202), anti-mouse-HRP (Jackson ImmunoResearch, 715-035-151) and anti-rabbit-HRP (Jackson ImmunoResearch, […]) were used at 1:5000 for western blot.
20 mM stock solution of compounds in DMSO were prepared and stored at −20° C.
Hela cells were treated 20 min at 37° C. with mixture containing 1000 U·ml^−1 IFNγ in DMEM with 0.2% BSA preincubated for 20 min at 37° C. with DMSO (as control) for JAK/STAT stimulation. For screening compounds, 40 μM compounds were pre-incubated with 1000 U·ml^−1 of IFNγ in DMEM containing 0.2% BSA for 20 min at 37° C. before adding it to Hela cells. 10-fold 7 or 5 serial dilutions from 400 μM of compounds were made in DMEM containing 1000 U·ml^−1 of IFNγ and 0.2% BSA, and incubated for 20 min before stimulating JAK/STAT for finding IC50 towards IFNγ.
Cells were lysed in sample buffer (62.5 mM Tris/HCl, […], 2% v/v SDS, 10% glycerol v/v, 40 mM dithiothreitol, and 0.03% w/v phenol red). Samples were analysed by SDS-PAGE on 4-15% Mini-PROTEAN* TGX™ Precast Gels or on 4-15% Mini-PROTEAN′ TGX™ Stain Free Gel (Bio-Rad) and immuno-blotted with the indicated primary antibodies and horseradish peroxidase- or Alexa488-conjugated secondary antibodies. […] Acquisition and quantification were performed with the ChemiDoc MP Imaging System (Bio-Rad). Phosphorylated protein over total protein ratio was determined on the same blot using horseradish peroxidase and Alexa488 signals.

[3] = system: Hela cells; assay: Cell viability assay (CellTiter-Blue); settings: Hela cells treated for 24 h; for IC50: Homo sapiens, n=3
Method: Cell viability assay was carried out by plating 10,000 cells/well in 96-well plates. 3-Fold 8 serial dilutions of the compounds from 3 mM were made in DMEM. HeLa cells were treated for 24 h with the compounds of different concentrations made. In case of preincubation with IFNγ, 6000 U·ml^−1 of IFNγ per concentration of compounds were used and incubated for 20 min. According to manufacturer's protocol,
CellTiter-Blue® reagent was added after 24 h treatment and cells were incubated for 3 h before recording fluorescence intensities (λex. 560/20 nm; λem. 590/10 nm) using a Perkin Elmer Wallac 1420 Victor2 Microplate Reader.

Compound | formin targeting / actin assembly (phalloidin pattern, cell area), result in words [1] | inhibition of phosphorylation of STAT, dose-response in words [2] | IC50 [2] [µM] | cytotoxicity at effective doses [3] | IC50 [3] [µM] | inhibition of IFNγ-induced pSTAT1 (IFNγ-signaling), result in words [2]
Cc1ccc(C=C2C(=O)NC(=S)N(c3cccc(F)c3)C2=O)o1 [Compound 6a, 1-(3-fluorophenyl)-5-((5-methylfuran-2-yl)methylene)-2-thioxodihydropyrimidine-4,6(1H,5H)-dione] | inhibited either IFNγ-signaling or formins | – | – | – | – | –
C#Cc1ccc(C=C2C(=O)N(c3cccc(F)c3)C(=S)N(c3cccc(F)c3)C2=O)o1 [Compound 5k, 5-((5-ethynylfuran-2-yl)methylene)-1,3-bis(3-fluorophenyl)-2-thioxodihydropyrimidine-4,6(1H,5H)-dione] | – | dose-dependent manner in the low micromolar range | 5.97 | did not show significant cytotoxicity at effective doses | 95 | –
C#Cc1ccc(C=C2C(=O)NC(=S)N(c3cccc(Br)c3)C2=O)o1 [Compound 5a, (1-(3-bromophenyl)-5-((5-ethynylfuran-2-yl)methylene)-2-thioxodihydropyrimidine-4,6(1H,5H)-dione)] | deprived of formin targeting | dose-dependent manner in the low micromolar range | 1.08 | did not show significant cytotoxicity at effective doses | 331 | inhibited IFNγ-induced pSTAT1
O=C1NC(=O)N(c2cccc(Br)c2)C(=O)C1=Cc1ccco1 [Compound 6l, 1-(3-bromophenyl)-5-(furan-2-ylmethylene)pyrimidine-2,4,6(1H,3H,5H)-trione] | – | – | – | – | – | did not show IFNγ-signaling inhibitory activity
C#Cc1ccc(C=C2C(=O)N(c3cccc(Br)c3)C(=S)N(c3cccc(Br)c3)C2=O)o1 [Compound 5j, 1,3-bis(3-bromophenyl)-5-((5-ethynylfuran-2-yl)methylene)-2-thioxodihydropyrimidine-4,6(1H,5H)-dione] | – | dose-dependent manner in the low micromolar range | 4.63 | did not show significant cytotoxicity at effective doses | 308 | biologically active compounds
C#Cc1ccc(C=C2C(=O)NC(=S)N(c3cccc(F)c3)C2=O)o1 [Compound 5b, 5-((5-ethynylfuran-2-yl)methylene)-1-(3-fluorophenyl)-2-thioxodihydropyrimidine-4,6(1H,5H)-dione] | – | dose-dependent manner in the low micromolar range | 1.05 | did not show significant cytotoxicity at effective doses | 95 | –
O=C1NC(=S)N(c2cccc(F)c2)C(=O)C1=Cc1ccc(Cl)o1 [Compound 6b, 5-((5-chlorofuran-2-yl)methylene)-1-(3-fluorophenyl)-2-thioxodihydropyrimidine-4,6(1H,5H)-dione] | – | – | – | – | – | inhibited either IFNγ-signaling or formins
O=C1NC(=S)N(c2cccc(F)c2)C(=O)C1=Cc1ccc(Br)o1 [Compound 6i, 5-((5-bromofuran-2-yl)methylene)-1-(3-fluorophenyl)-2-thioxodihydropyrimidine-4,6(1H,5H)-dione] | inhibited either IFNγ-signaling or formins | – | – | – | – | –
O=C1NC(=S)N(c2cccc(Br)c2)C(=O)C1=Cc1ccco1 [SMIFH2, 1-(3-Bromophenyl)-5-(2-furylmethylene)-2-thioxo-hexahydropyrimidine-4,6-dione, reference compound] | – | – | – | – | – | capable of inhibiting IFNγ signaling
C#Cc1ccc(C=C2C(=O)NC(=O)N(c3cccc(Br)c3)C2=O)o1 [Compound 5l, 1-(3-bromophenyl)-5-((5-ethynylfuran-2-yl)methylene)pyrimidine-2,4,6(1H,3H,5H)-trione] | retained its activity against both IFNγ-signaling and formin | – | – | – | – | retained its activity against both IFNγ-signaling and formin
